Where two headings read alike, the source gives them in different places.

Our source for the VBS and Developmental phenotype values is PMC3226499, “Environmental Impact on Vascular Development Predicted by High-Throughput Screening” (Environmental Health Perspectives, 2011).

For series [1], the system named is six prioritized vascular targets (VEGFR2, TIE2, CCL2, PAI-1, CXCL10, uPAR). In words: Vascular bioactivity score (VBS): weighted sum of activity across 23 ToxCast assays. Further details: species or system human.
A further series concerns pregnant rabbits. As to conditions: cited from earlier work.
In a further series the test system is pregnant rats. As to conditions: cited from earlier work.
Setting [2] is: pVDCs with rabbit-specific effects.
[3] abbreviates: rabbit-specific effects in ToxRefDB prenatal studies, ref U.S. EPA 2010b.
Setting [4] is: pVDCs with rat-specific effects.
Where [5] appears, read: rat-specific effects in ToxRefDB prenatal studies, ref U.S. EPA 2010b.
Setting [6] is: ranking of 309 phase I chemicals, mean cutoff for pVDC.

In turn, `C[C@@]1(c2ccc(Oc3ccccc3)cc2)OC(=O)N(Nc2ccccc2)C1=O` (racemic) [Famoxadone] registered a VBS in series [1] (setting [2]) of 1.82. Also, the Developmental phenotype entry in the series with pregnant rabbits (setting [3]) is listed as “Embryo fetal loss; maternal pregnancy loss”. In series [1] (setting [4]), `Cc1nn(C)c(Oc2ccccc2)c1/C=N/OCc1ccc(C(=O)OC(C)(C)C)cc1` [(Z,E)-Fenpyroximate] yielded a VBS of 3.88. The Developmental phenotype entry with pregnant rats (setting [5]) is given as “Skeletal: axial”. Compound `CCOCN(C(=O)CCl)c1c(C)cccc1CC` [Acetochlor] had a VBS in series [1] (setting [4]) of 2.16. In series [1] (setting [4]), `CCc1cccc(CC)c1N(COC)C(=O)CCl` [Alachlor] showed a VBS of 2.97. For the same compound, the Developmental phenotype entry in the series with pregnant rats (setting [5]) is “Fetal weight reduction; embryo fetal loss”. In turn, `COP(=O)(OC)SCn1c(=O)oc2cc(Cl)cnc21` [Azamethiphos] had a VBS in series [1] (setting [2]) of 3.10. Further, in the series with pregnant rabbits (setting [3]), the Developmental phenotype result is “Maternal pregnancy loss”. `CCCCOCN(C(=O)CCl)c1c(CC)cccc1CC` [Butachlor] yielded a VBS in series [1] (setting [2]) of 1.99. For the compound `C=CCOC(=O)C(C)(C)OC(=O)c1cc(-n2c(=O)cc(C(F)(F)F)n(C)c2=O)ccc1Cl` [Butafenacil], the VBS in series [1] (setting [2]) turned out to be 2.94. The Developmental phenotype entry in the series with pregnant rabbits (setting [3]) was “Embryo fetal loss”. Regarding `CC1=C(C(=O)Nc2ccccc2)SCCO1` [Carboxin], the VBS in series [1] (setting [2]) is 1.56. Moreover, the Developmental phenotype result in the series on pregnant rabbits (setting [3]) is on record as “Maternal pregnancy loss”. In turn, `N#Cc1c(Cl)c(Cl)c(Cl)c(C#N)c1Cl` [Chlorothalonil] yielded a VBS in series [1] (setting [4]) of 3.28. For the same compound, the Developmental phenotype result with pregnant rats (setting [5]) is “Embryo fetal loss; maternal pregnancy loss”. As to `Cc1ccc(-c2c(Cl)nc(C#N)n2S(=O)(=O)N(C)C)cc1` [Cyazofamid], in series [1] (setting [4]), the VBS is 3.34. For the same compound, in the series with pregnant rats (setting [5]), the Developmental phenotype result is listed as “Skeletal: axial”. For the compound `CN1CSC(=S)N(C)C1` [Dazomet], the VBS in series [1] (setting [2]) worked out at 2.61. `COP(=O)(OC)OC=C(Cl)Cl` [Dichlorvos] registered a VBS in series [1] (setting [2]) of 2.34. Also, the Developmental phenotype result with pregnant rabbits (rabbit, in vivo) was “Maternal pregnancy loss”. For the compound `OC(c1ccc(Cl)cc1)(c1ccc(Cl)cc1)C(Cl)(Cl)Cl` [Dicofol], the VBS in series [1] (setting [2]) was 1.92. Moreover, the Developmental phenotype result in the series with pregnant rabbits (setting [3]) is reported as “Maternal pregnancy loss”. `COP(=O)(OC)O/C(C)=C/C(=O)N(C)C` [Dicrotophos] gave a VBS in series [1] (setting [2]) of 1.59.

`CCOc1cc(C(C)(C)C)ccc1C1COC(c2c(F)cccc2F)=N1` (stereo not drawn) [Etoxazole]: in series [1] (setting [2]), the VBS is listed as 3.66. The Developmental phenotype result with pregnant rabbits (setting [3]) is recorded as “Skeletal: axial”. With `CCOC(=O)NCCOc1ccc(Oc2ccccc2)cc1` [Fenoxycarb], in series [1] (setting [2]), the VBS was found to be 3.60. The Developmental phenotype entry with pregnant rabbits (setting [3]) was “Skeletal: axial”. For the compound `CC1(C)C(C(=O)OC(C#N)c2cccc(Oc3ccccc3)c2)C1(C)C` (stereo not drawn) [Fenpropathrin], the VBS in series [1] (setting [4]) came out at 2.18. In addition, in the series with pregnant rats (rat, in vivo), the Developmental phenotype entry was “Maternal pregnancy loss”. Compound `N#Cc1c[nH]cc1-c1cccc2c1OC(F)(F)O2` [Fludioxonil] displayed a VBS in series [1] (setting [4]) of 1.82. Besides, the Developmental phenotype entry with pregnant rats (setting [5]) is listed as “Urogenital: renal, ureteric”; in the series with pregnant rats (rat-specific effects in ToxRefDB prenatal studies, ref U.S. EPA 2010b, listed as fludioxonil), “urogenital end points”. `CCOC(=O)COc1cc(-n2ncc(C(F)(F)F)c(C)c2=O)c(F)cc1Cl` [Flufenpyr-ethyl] had a VBS in series [1] (setting [2]) of 1.73. In addition, in the series with pregnant rabbits (setting [3]), the Developmental phenotype result is given as “Maternal pregnancy loss”. Consider `CCCCCOC(=O)COc1cc(N2C(=O)C3=C(CCCC3)C2=O)c(F)cc1Cl` [Flumiclorac-pentyl], for which the VBS in series [1] (setting [2]) was found to be 2.11. In the series with pregnant rabbits (setting [3]), the Developmental phenotype result is reported as “Maternal pregnancy loss”. Turning to `CO/N=C(/C1=NOCCO1)c1ccccc1Oc1ncnc(Oc2ccccc2Cl)c1F` [Fluoxastrobin], in series [1] (setting [4]), the VBS is listed as 2.79. For the same compound, in the series with pregnant rats (setting [5]), the Developmental phenotype result was “Skeletal: appendicular”. As to `C[C@@H]1[C@@H](c2ccc(Cl)cc2)SC(=O)N1C(=O)NC1CCCCC1` [Hexythiazox], the VBS in series [1] (setting [4]) was determined as 2.78. Besides, the Developmental phenotype result in the series with pregnant rats (setting [5]) is reported as “Skeletal: appendicular”. The compound `CCOC(=O)C(C)OC(=O)c1cc(Oc2ccc(C(F)(F)F)cc2Cl)ccc1[N+](=O)[O-]` (stereo not drawn) [Lactofen] came in with a VBS in series [1] (setting [4]) of 3.18. The Developmental phenotype entry in the series with pregnant rats (setting [5]) is recorded as “Fetal weight reduction; maternal pregnancy loss; skeletal: appendicular; skeletal: axial”.

As for `N#CSCSC#N` [Methylene bis(thiocyanate)], the VBS in series [1] (setting [2]) was 6.55. In addition, the Developmental phenotype entry in the series with pregnant rabbits (setting [3]) is recorded as “Maternal pregnancy loss”. Turning to `CCc1cccc(C)c1N(C(=O)CCl)C(C)COC` (stereo not drawn) [Metolachlor], in series [1] (setting [4]), the VBS amounted to 1.57. Besides, the Developmental phenotype entry in the series on pregnant rats (setting [5]) was “Fetal weight reduction; embryo fetal loss; maternal pregnancy loss”. For `COP(=O)(OC)OC(Br)C(Cl)(Cl)Br` (stereo not drawn) [Naled], the VBS in series [1] (setting [4]) was determined as 4.22. Moreover, the Developmental phenotype entry in the series with pregnant rats (setting [5]) was “Embryo fetal loss; trunk: body wall”. With `CCOc1cc(Oc2ccc(C(F)(F)F)cc2Cl)ccc1[N+](=O)[O-]` [Oxyfluorfen], the VBS in series [1] (setting [2]) was 1.82. The Developmental phenotype result with pregnant rabbits (setting [3]) is listed as “Embryo fetal loss; maternal pregnancy loss”. For the compound `C#CCC1=C(C)C(OC(=O)C2C(C=C(C)C)C2(C)C)CC1=O` (stereo not drawn) [Prallethrin], the VBS in series [1] (setting [4]) is 2.11. For the same compound, the Developmental phenotype entry in the series with pregnant rats (setting [5]) is “Maternal pregnancy loss”. With `CCCN(CCC)c1c([N+](=O)[O-])cc(C(F)(F)F)c(N)c1[N+](=O)[O-]` [Prodiamine], the VBS in series [1] (setting [4]) is on record as 2.19. In addition, the Developmental phenotype result in the series on pregnant rats (setting [5]) was “Neurosensory: eye”.

`CCCSP(=O)(OCC)Oc1ccc(Br)cc1Cl` (stereo not drawn) [Profenofos] returned a VBS in series [1] (setting [4]) of 1.71. In the series on pregnant rats (setting [5]), the Developmental phenotype result is listed as “Maternal pregnancy loss”. With `C#CCOS(=O)OC1CCCCC1Oc1ccc(C(C)(C)C)cc1` (stereo not drawn) [Propargite], in series [1] (setting [2]), the VBS came out at 3.79. For the same compound, in the series on pregnant rabbits (setting [3]), the Developmental phenotype result is given as “Skeletal: axial”. Turning to `CCNP(=S)(OC)O/C(C)=C/C(=O)OC(C)C` (stereo not drawn) [Propetamphos], the VBS in series [1] (setting [2]) is recorded as 2.08. For the same compound, the Developmental phenotype result in the series on pregnant rabbits (setting [3]) is reported as “Embryo fetal loss”. `Fc1ccc(Oc2ccnc3cc(Cl)cc(Cl)c23)cc1` [Quinoxyfen]: the VBS in series [1] (setting [2]) is given as 3.02. Further, the Developmental phenotype result with pregnant rabbits (rabbit, in vivo) is given as “Maternal pregnancy loss”.

`CCC(C)(C)C(=O)OC1=C(c2ccc(Cl)cc2Cl)C(=O)OC12CCCCC2` [Spirodiclofen]: in series [1] (setting [4]), the VBS turned out to be 3.15. The Developmental phenotype entry was “Urogenital: renal” with pregnant rats (setting [5]) and “urogenital end points” in the series with pregnant rats (rat-specific effects in ToxRefDB prenatal studies, ref U.S. EPA 2010b, listed as spirodiclofen). In series [1] (setting [4]), `FC(F)C(F)(F)OCC(Cn1cncn1)c1ccc(Cl)cc1Cl` (stereo not drawn) [Tetraconazole] came in with a VBS of 2.23. Also, the Developmental phenotype result is “urogenital end points” in the series with pregnant rats (rat, in vivo) and “General fetal pathology; skeletal: axial; urogenital: renal, ureteric” in the series on pregnant rats (setting [5]). The compound `COC(=O)c1c(C(F)F)nc(C(F)(F)F)c(C2=NCCS2)c1CC(C)C` [Thiazopyr] displayed a VBS in series [1] (setting [4]) of 2.00.

In series [1] (setting [4]), `CS/C(C)=N\OC(=O)N(C)SN(C)C(=O)O/N=C(\C)SC` [Thiodicarb] registered a VBS of 2.97. The Developmental phenotype entry with pregnant rats (setting [5]) is reported as “Fetal weight reduction, general fetal pathology; embryo fetal loss; maternal pregnancy loss; skeletal: axial”.

`CC1(C)C(C=C(Cl)Cl)C1C(=O)OC(C#N)c1ccc(F)c(Oc2ccccc2)c1` (stereo not drawn) [cyfluthrin] registered a VBS in series [1] (setting [6]) of 1.48. For the compound `CC(C)(C)c1ccc(CSc2cnn(C(C)(C)C)c(=O)c2Cl)cc1` [pyridaben], the VBS in series [1] (setting [6]) is recorded as 6.9.

The compound Diniconazole returned a VBS in series [1] (setting [4]) of 4.57.
